Laboratory results taken from patent US20230027295A1, “FXIA INHIBITORS AND PREPARATION METHOD THEREFOR AND PHARMACEUTICAL USE THEREOF” (Shenzhen Salubris Pharmaceuticals Co., Ltd., priority 2019, published 2023).

How the values were obtained:
Rat pharmacokinetics = assay type: in vivo, SD rats; parameters: AUC: concentration or dose not given beside the values; conditions: for AUC / Cmax / Tmax / clearance / half-life / Vd: male, SD, plasma; for Vd: read-out: Vss
Text: (§1) Example 53: Investigation of the Pharmacokinetic Characteristics of the Compounds of the Present Invention
(§2) SD rats: male, 180-250 g, purchased from Guangdong Medical Laboratory Animal Center. Cynomolgus monkey: male, 4-6 kg, purchased from Guangzhou Chunsheng Biological Research Institute Co., Ltd. Beagle dog: male, 8-12 kg, developed in Kanglong Chemical (Ningbo) New Drug Technology Co., Ltd.
(§3) Reagents: DMSO (dimethyl sulfoxide), PEG-400 (polyethylene glycol 400), normal brine, heparin, acetonitrile, formic acid, and propranolol (internal standard) are commercially available.
(§4) Instrumentation: Thermo Fisher Scientific LC-MS (U300 UPLC, TSQ […] ULTRA triple quadrupole mass spectrometer).
(§5) The compound was weighed and dissolved in DMSO-PEG-400-physiological brine (5:60:35, v/v/v) system. After the rats/monkeys were administered intravenously or by gavage, 200 μL of venous blood was collected at 5 min (not collected when administered by gavage), 15 min, 30 min, 1 h, 2 h, 4 h, 6 h, 8 h, and 24 h in heparinized EP tubes, centrifuged at 12000 rpm for 2 min, and the plasma was frozen at −80° C. for testing. A certain amount of the test substance was precisely weighed and dissolved in DMSO to 1 mg/mL, which was used as a stock solution. An appropriate amount of compound stock solution was accurately pipetted and diluted with acetonitrile to prepare a standard series of solutions. 20 μL of each of the above standard series solutions were accurately pipetted, added with 180 μL of blank plasma, vortexed and mixed to prepare plasma samples equivalent to plasma concentrations of 1, 3, 10, 30, 100, 300, 1000, 3000 and 5000 ng/mL. Two-sample analysis was performed for each concentration to establish a standard curve. 20 μL of plasma was taken out, added with 200 μL of internal standard propranolol (5 ng/mL) in acetonitrile, vortexed and mixed. It was centrifuged at 4000 rpm for 5 min, and the supernatant was collected for LC-MS analysis. LC-MS detection conditions were as follows:
(§6) Chromatographic column: Thermo Scientific […] GOLD C-18 UPLC column, 100*2.1 mm, 1.9 μm.
(§7) Mobile phase: water (0.1% formic acid)-acetonitrile for gradient elution according to the table below.
(§8) After blood drug concentrations being detected by LC-MS, WinNonlin 6.1 software was used to calculate pharmacokinetic parameters by non-compartmental model method.

CYP2C19 = target: T1, CYP2C19 (Homo sapiens, UniProt P33261); assay: CYP enzyme inhibition in liver microsomes: CYP2C19; assay type: in vitro ADME; conditions: 0.2 mg/mL liver microsomes
T1 construct: Liver microsomes (150-donor, Corning, Cat. 452117; Lot; 38292), NADPH; tissue Corning 452117; host or cells: liver microsomes, 150-donor pool
Procedure: (§9) Example 55: Investigation of CYP Enzyme Inhibition by the Compounds of the Present Invention Liver microsomes (150-donor, Corning, Cat. 452117; Lot. 38292), NADPH. A 0.2 mg/mL microsome system was prepared, each test substance and substrate were added, and the final concentration of the test substance was 50 μM. After pre-incubating for 8 min, 10 mM NADPH was added to start the reaction, and the final concentration of NADPH was 1 mM. After a period of incubation, an internal standard such as methanol was added to stop the reaction. The amount of substrate metabolites generated in each reaction well was detected. Data processing: Taking the metabolite generation in the blank well as 100%, the reduction of metabolite generation in each well of the test substance was calculated, and the inhibition rate was calculated.

hFIIa = target: T2, hFIIa (Homo sapiens, UniProt P00734); assay: Selectivity to coagulation factors: hFIIa (substrate S-2238); assay type: biochemical
T2 construct: purchased HT5146L
Procedure: (§10) Example 52: Investigation of the Selectivity of the Compounds of the Present Invention to Coagulation Factors
(§11) Enzyme: hFXa: Human Factor Xa: 71nkat. hFIIa: HT5146L. hFVIIa: Human Factor VIIa: hFVIIa 4591L. kallikrein: LOT180223.
(§12) 10 mM test compound dissolved in 100% DMSO was diluted with 100% DMSO to 1000, 200, 40, 8, 1.6 μM. 98 μL of enzyme solution was added to each well of a 96-well plate, while 98 μL of buffer was added to the blank wells. 2 μL of compounds of different concentrations were added, while the blank and control wells were added with DMSO instead. They were mixed with a shaker, and incubated at 37° C. for 20 min.
(§13) The concentrations of hFXa and S-2222™ were FXa (1:28) and 800 μmol/L, respectively. The concentrations of hFIIa and S-2238™ were hFIIa (0.06 U/ml) and 500 μmol/L, respectively. The concentrations of hFVIIa and S-2288™ were hFVIIa (80 nM) and 1600 μmol/L, respectively. The concentrations of kallikrein and substrate were kallikrein (20 nM) and 1600 μmol/L, respectively.
(§14) Finally, 100 μL substrate was added to each well, and its absorbance was measured at 405 nm.

CYP3A5 = target: T3, CYP3A5 (Homo sapiens, UniProt P20815); assay: CYP enzyme inhibition in liver microsomes: CYP3A5; assay type: in vitro ADME; conditions: 0.2 mg/mL liver microsomes
T3 construct: Liver microsomes (150-donor, Corning, Cat. 452117; Lot; 38292), NADPH; tissue Corning 452117; host or cells: liver microsomes, 150-donor pool
Procedure: as §9

Human Factor Xa = target: T4, Human Factor Xa (Homo sapiens, UniProt P00742); assay: Selectivity to coagulation factors: hFXa (substrate S-2222); assay type: biochemical
T4 construct: hFXa: Human Factor Xa: 71nkat; purchased 71nkat
Procedure: as §10, §11
hFXa buffer: 100 mM NaCl, 5 mM CaCl2, 33% ethylene glycol, 50 mM Tris (pH 7.5).
as §12, §13, §14

CYP2C9 = target: T5, CYP2C9 (Homo sapiens, UniProt P11712); assay: CYP enzyme inhibition in liver microsomes: CYP2C9; assay type: in vitro ADME; conditions: 0.2 mg/mL liver microsomes
T5 construct: Liver microsomes (150-donor, Corning, Cat. 452117; Lot; 38292), NADPH; tissue Corning 452117; host or cells: liver microsomes, 150-donor pool
Procedure: Example 55: Investigation of CYP Enzyme Inhibition by the Compounds of the Present Invention Liver microsomes (150-donor, Corning, Cat. 452117; Lot. 38292), NADPH. […] After pre-incubating for 8 min, 10 mM NADPH was added to start the reaction, and the final concentration of NADPH was 1 mM. After a period of incubation, an internal standard such as methanol was added to stop the reaction. The amount of substrate metabolites generated in each reaction well was detected. […]

[1] = Beagle dog pharmacokinetics; assay type: in vivo; conditions: for AUC / Cmax / Tmax / clearance / half-life / Vd: male, plasma; for Vd: read-out: Vss
Text: as §1, §2, §3, §4, §5, §6, §7, §8

T3 sequence (P20815 whole entry): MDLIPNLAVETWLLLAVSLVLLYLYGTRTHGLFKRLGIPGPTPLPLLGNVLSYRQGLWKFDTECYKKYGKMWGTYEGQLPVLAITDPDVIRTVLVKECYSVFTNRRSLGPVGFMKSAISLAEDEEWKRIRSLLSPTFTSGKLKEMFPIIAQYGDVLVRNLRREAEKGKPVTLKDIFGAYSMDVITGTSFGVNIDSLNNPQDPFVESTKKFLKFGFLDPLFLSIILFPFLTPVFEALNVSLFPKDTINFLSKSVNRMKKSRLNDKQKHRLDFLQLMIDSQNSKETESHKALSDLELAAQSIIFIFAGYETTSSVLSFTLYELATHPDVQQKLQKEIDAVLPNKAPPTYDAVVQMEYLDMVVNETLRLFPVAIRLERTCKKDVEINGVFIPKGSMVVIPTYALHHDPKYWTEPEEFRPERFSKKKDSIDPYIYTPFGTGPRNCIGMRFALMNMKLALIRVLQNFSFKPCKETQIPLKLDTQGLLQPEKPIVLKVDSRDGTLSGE
T1 sequence (P33261 whole entry): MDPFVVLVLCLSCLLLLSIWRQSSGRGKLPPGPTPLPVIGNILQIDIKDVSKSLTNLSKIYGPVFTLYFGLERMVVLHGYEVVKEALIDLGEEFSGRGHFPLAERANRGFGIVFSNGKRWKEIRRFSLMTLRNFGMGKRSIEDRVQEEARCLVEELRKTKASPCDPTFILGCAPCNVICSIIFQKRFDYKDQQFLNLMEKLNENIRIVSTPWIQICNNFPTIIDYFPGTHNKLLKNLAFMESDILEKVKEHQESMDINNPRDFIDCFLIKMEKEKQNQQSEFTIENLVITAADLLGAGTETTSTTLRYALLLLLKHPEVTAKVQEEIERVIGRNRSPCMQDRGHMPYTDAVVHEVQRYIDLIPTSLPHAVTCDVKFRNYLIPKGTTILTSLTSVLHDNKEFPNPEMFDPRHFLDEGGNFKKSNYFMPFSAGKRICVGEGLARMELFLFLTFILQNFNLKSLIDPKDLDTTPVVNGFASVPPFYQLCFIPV
T4 sequence (P00742 235-488 limits assumed): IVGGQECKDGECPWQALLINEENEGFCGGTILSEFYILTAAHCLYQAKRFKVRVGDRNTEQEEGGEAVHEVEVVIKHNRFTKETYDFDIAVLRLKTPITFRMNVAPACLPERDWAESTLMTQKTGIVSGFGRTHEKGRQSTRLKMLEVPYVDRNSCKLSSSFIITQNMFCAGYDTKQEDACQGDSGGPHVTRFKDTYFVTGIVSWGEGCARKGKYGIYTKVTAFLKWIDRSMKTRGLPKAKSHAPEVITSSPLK
T4 sequence (P00742 41-179 partner limits assumed): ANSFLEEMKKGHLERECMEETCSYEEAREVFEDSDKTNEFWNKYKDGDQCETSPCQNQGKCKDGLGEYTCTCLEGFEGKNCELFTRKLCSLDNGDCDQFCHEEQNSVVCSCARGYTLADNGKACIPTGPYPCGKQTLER
T5 sequence (P11712 whole entry): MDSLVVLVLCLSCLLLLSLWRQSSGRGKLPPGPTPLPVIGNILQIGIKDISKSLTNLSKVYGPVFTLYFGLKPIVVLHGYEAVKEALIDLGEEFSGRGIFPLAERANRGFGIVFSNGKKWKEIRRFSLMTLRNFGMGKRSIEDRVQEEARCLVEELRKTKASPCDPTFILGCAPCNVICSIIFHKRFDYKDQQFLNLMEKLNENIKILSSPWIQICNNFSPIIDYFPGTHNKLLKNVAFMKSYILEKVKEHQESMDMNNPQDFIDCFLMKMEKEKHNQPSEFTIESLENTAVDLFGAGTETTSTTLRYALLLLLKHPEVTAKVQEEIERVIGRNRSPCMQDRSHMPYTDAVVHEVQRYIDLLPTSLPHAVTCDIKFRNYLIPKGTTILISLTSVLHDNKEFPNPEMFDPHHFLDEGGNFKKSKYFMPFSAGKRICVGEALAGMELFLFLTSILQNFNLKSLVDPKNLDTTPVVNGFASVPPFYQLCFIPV

| SMILES | F (Rat pharmacokinetics; ig) | AUC (Rat pharmacokinetics; iv) | Cmax (Rat pharmacokinetics; iv) | Tmax (Rat pharmacokinetics; iv) | clearance (Rat pharmacokinetics; iv) | half-life (Rat pharmacokinetics; iv) | Vd (Rat pharmacokinetics; iv) | AUC (Rat pharmacokinetics; po, ig) | Cmax (Rat pharmacokinetics; po, ig) | Tmax (Rat pharmacokinetics; po, ig) | half-life (Rat pharmacokinetics; po, ig) | IC50 (CYP2C19) | IC50 (hFIIa) | IC50 (CYP3A5) | IC50 (Human Factor Xa) | IC50 (CYP2C9) | F ([1]; ig) | AUC ([1]; iv) | Cmax ([1]; iv) | Tmax ([1]; iv) | also measured |
| --- | --- | --- | --- | --- | --- | --- | --- | --- | --- | --- | --- | --- | --- | --- | --- | --- | --- | --- | --- | --- | --- |
| COc1nn([C@@H](Cc2ccccc2)C(=O)Nc2ccc(C(=O)O)cc2)c(=O)cc1-c1cc(Cl)ccc1C(C)=O [Example 19, (S)-4-(2-(4-(2-acetyl-5-chlorophenyl)-3-methoxy-6-oxopyridazin-1(6H)-yl)-3-phenylpropanamido)benzoic acid] | 24.6% | 1020 ng·h/mL | 2500 ng/mL | 0.083 h | 16.4 mL/min/kg | 0.181 h | 0.269 L/kg | 2510 ng·h/mL | 768 ng/mL | 1.25 h | 2.52 h | > 50 µM | > 100 µM | > 50 µM | > 100 µM | > 50 µM | 65.5% | 1410 ng·h/mL | 2580 ng/mL | 0.083 h | clearance ([1]; iv): 11.8 mL/min/kg; half-life ([1]; iv): 4.2 h; Vd ([1]; iv): 0.8 L/kg; AUC ([1]; po, ig): 9230 ng·h/mL; Cmax ([1]; po, ig): 2320 ng/mL; Tmax ([1]; po, ig): 1.25 h; half-life ([1]; po, ig): 3.6 h |
| CCC(=O)c1ccc(Cl)cc1-c1cc(=O)n([C@@H](Cc2ccccc2)C(=O)Nc2ccc(C(=O)O)cc2)nc1OC [Example 32] | 5.4% | 922 ng·h/mL | 2200 ng/mL | 0.083 h | 23.5 mL/min/kg | 1.65 h | 0.741 L/kg | 788 ng·h/mL | 242 ng/mL | 0.333 h | 3.77 h | > 50 µM | > 100 µM | > 50 µM | > 100 µM | ~50 µM | 49.6% | 756 ng·h/mL | 2190 ng/mL | 0.083 h | clearance ([1]; iv): 22.7 mL/min/kg; half-life ([1]; iv): 7.77 h; Vd ([1]; iv): 2.64 L/kg; AUC ([1]; po, ig): 3770 ng·h/mL; Cmax ([1]; po, ig): 1600 ng/mL; Tmax ([1]; po, ig): 0.25 h; half-life ([1]; po, ig): 4.51 h |
